Test [1] has as its system ACC1. The following applies: ACC1 isolated from rat, mouse, monkey and human; cited from earlier work.
The test system of test [2] is ACC2. The following applies: ACC2 isolated from rat, mouse, monkey and human; cited from earlier work.
Test [3] addresses human (hACC2) ACC2 (Homo sapiens, UniProt O00763). Nature of the test: In vitro Acetyl-CoA Carboxylase (ACC) inhibition assay (ADP-Glo), hACC2. The format is biochemical. How it is done: The detailed procedure is as follows. […] 10 μL ADP glo reagent was added. […] 20 μL kinase detection reagent was added.
“NA” stands for “not assayed.”
Background: ADP-Glo turns the ADP formed in a reaction into a luminescent signal.

The subject of test [4] is C. albicans ATCC 90028. Description: Anti-Fungal (Candida) Activity Assay, broth microtiter MIC. In kind it is cell-based. The settings on record: read-out: MIC C. albicans ATCC 90028. The procedure, abridged:
(§1)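 Visual 48 h MIC endpoints are reported. Plates followed CLSI M27-A3 in RPMI 1640 plus MOPS.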

Test [5] has as its system C. krusei ATCC 6258. The test is described as above. The format is cell-based. The following applies: Pichia kudriavzevii, read-out: MIC C. krusei ATCC 6258. The procedure, abridged:
as §1

Test [6] relates to C. parapsilosis ATCC 22019. Described as above. The format is cell-based. The following applies: Lodderomyces parapsilosis, read-out: MIC C. parapsilosis ATCC 22019. The procedure, abridged: as §1
Test [7] has as its system Botrtyis cinerea (Bc). Description: Growth inhibition assay of fungal pathogens. In kind it is cell-based. The settings on record: 48 h, read-out: Concentration at 90% Inhibition Bc. In a few lines:
(§2)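 Compounds in DMSO tested at final 50, 10, 2 ppm or 2, 0.4, 0.08 ppm. Spores in 17% V8 medium, or 1.5 mm mycelial plugs in ¼ PDB for R. solani, incubated with compound. OD600 and visual ratings at 48 h versus 2% DMSO control gave percent growth inhibition.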

The subject of test [8] is Collectotrichum graminicola (Cg). Nature of the test: Growth inhibition assay of fungal pathogens. The settings on record: 48 h, read-out: Concentration at 90% Inhibition Cg. The format is cell-based. In a few lines: (§3)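 Liquid-culture assay in which test compounds are applied at three final concentrations (50, 10, 2 ppm or 2, 0.4, 0.08 ppm). Inoculum levels follow 48 h growth curves for each fungus. Growth is monitored by OD600 and by eye, and the 48 h values give % inhibition against DMSO.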

Test [9] deals with Diplodia maydis (Dm). Description: Growth inhibition assay of fungal pathogens. The format is cell-based. The settings on record: Stenocarpella maydis, 48 h, read-out: Concentration at 90% Inhibition Dm. In a few lines: as §2
The subject of test [10] is Fusarium moniliforme (Fm). Description: Growth inhibition assay of fungal pathogens. The format is cell-based. The following applies: for IC90: Fusarium verticillioides, 48 h, read-out: Concentration at 90% Inhibition Fm. The procedure, abridged: as §2
The subject of test [11] is Fusarium virguliforme (Fv). Description: Growth inhibition assay of fungal pathogens. The format is cell-based. The settings on record: 48 h. In a few lines:
as §3

The subject of test [12] is Phytophthora capsici (Pc). Description: Growth inhibition assay of fungal pathogens. In kind it is cell-based. The following applies: for IC90: Phytophthora capsici, read-out: Concentration at 90% Inhibition Pc. The procedure, abridged: as §3
In test [13] the test system is Rhizoctonia solani (Rs). Nature of the test: Growth inhibition assay of fungal pathogens. In kind it is cell-based. The settings on record: 48 h, read-out: Concentration at 90% Inhibition Rs. The procedure, abridged: as §2
The test system of test [14] is Septoria tritici (St). Nature of the test: Growth inhibition assay of fungal pathogens. In kind it is cell-based. The following applies: for IC90: Zymoseptoria tritici, read-out: Concentration at 90% Inhibition St. The procedure, abridged: as §3
For test [15], the target named is fungal (fACC2) ACC2 (UniProt Q00955). The settings on record: read-out: fACC2 IC50; fungal ACC2, ADP-Glo.
[16] abbreviates: read-out: Concentration at 90% Inhibition Fv, Table 4a, 48 hours.
Where [17] appears, read: read-out: Concentration at 90% Inhibition Fv, Table 4b, 48 hours.

SMILES strings stand for the structures. In brackets after ≈: the same amount, converted by molar mass. Read-outs that look alike come from different tables or passages of the source.

Sequence of fungal (fACC2) ACC2 (Q00955 whole entry): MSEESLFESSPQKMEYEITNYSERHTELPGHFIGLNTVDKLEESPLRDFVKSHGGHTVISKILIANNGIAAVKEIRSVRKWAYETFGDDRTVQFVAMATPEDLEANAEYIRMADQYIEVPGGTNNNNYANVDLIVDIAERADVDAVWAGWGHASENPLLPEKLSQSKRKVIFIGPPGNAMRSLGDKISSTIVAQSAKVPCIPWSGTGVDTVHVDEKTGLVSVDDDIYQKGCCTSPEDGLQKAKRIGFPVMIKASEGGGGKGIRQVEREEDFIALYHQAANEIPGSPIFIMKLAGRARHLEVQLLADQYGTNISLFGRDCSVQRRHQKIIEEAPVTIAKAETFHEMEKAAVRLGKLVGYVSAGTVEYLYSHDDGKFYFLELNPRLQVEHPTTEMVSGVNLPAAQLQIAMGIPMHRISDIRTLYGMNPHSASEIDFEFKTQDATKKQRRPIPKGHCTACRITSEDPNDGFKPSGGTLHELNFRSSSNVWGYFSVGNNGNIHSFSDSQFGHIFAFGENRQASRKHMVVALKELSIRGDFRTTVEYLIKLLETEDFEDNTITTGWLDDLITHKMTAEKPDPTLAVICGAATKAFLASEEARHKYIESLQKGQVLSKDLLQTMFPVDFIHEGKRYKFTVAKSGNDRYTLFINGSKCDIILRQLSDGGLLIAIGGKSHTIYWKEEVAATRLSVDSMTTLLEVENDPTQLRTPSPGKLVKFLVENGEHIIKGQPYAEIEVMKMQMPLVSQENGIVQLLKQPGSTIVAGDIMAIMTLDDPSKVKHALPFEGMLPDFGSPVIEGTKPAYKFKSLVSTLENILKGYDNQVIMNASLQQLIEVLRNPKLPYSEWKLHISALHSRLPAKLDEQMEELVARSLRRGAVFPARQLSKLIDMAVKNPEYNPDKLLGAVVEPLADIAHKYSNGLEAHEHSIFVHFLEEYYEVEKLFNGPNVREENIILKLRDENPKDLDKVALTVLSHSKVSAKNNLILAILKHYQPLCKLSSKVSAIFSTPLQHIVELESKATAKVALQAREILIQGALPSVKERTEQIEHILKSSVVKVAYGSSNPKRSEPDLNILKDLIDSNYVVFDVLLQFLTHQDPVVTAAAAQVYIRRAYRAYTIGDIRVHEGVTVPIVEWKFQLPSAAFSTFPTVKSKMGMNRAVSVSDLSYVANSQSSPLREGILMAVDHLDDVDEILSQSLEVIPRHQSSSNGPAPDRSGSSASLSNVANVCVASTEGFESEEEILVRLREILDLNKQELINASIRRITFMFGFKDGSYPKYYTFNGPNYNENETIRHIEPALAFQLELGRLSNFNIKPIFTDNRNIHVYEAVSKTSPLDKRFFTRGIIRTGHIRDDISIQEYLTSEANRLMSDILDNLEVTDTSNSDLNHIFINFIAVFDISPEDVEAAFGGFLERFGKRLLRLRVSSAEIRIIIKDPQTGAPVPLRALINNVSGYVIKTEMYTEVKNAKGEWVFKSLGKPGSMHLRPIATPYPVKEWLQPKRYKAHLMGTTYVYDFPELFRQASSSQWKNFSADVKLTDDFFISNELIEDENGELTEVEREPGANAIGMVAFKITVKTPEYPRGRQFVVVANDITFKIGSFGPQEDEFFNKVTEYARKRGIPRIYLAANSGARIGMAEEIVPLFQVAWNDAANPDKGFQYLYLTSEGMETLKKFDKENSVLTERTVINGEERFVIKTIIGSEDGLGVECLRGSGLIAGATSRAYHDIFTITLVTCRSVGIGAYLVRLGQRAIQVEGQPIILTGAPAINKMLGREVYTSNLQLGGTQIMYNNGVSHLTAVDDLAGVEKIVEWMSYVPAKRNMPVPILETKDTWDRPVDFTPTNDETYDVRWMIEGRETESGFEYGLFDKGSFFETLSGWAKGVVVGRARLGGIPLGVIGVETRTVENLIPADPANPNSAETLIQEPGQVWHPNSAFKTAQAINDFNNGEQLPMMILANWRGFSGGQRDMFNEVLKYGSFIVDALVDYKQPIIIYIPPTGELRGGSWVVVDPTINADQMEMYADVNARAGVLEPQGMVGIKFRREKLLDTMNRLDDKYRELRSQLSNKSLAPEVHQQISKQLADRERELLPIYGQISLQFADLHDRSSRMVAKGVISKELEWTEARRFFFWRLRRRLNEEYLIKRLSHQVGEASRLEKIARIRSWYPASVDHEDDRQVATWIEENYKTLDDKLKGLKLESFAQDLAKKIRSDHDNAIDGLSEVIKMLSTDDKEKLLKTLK
Sequence of human (hACC2) ACC2 (O00763 whole entry): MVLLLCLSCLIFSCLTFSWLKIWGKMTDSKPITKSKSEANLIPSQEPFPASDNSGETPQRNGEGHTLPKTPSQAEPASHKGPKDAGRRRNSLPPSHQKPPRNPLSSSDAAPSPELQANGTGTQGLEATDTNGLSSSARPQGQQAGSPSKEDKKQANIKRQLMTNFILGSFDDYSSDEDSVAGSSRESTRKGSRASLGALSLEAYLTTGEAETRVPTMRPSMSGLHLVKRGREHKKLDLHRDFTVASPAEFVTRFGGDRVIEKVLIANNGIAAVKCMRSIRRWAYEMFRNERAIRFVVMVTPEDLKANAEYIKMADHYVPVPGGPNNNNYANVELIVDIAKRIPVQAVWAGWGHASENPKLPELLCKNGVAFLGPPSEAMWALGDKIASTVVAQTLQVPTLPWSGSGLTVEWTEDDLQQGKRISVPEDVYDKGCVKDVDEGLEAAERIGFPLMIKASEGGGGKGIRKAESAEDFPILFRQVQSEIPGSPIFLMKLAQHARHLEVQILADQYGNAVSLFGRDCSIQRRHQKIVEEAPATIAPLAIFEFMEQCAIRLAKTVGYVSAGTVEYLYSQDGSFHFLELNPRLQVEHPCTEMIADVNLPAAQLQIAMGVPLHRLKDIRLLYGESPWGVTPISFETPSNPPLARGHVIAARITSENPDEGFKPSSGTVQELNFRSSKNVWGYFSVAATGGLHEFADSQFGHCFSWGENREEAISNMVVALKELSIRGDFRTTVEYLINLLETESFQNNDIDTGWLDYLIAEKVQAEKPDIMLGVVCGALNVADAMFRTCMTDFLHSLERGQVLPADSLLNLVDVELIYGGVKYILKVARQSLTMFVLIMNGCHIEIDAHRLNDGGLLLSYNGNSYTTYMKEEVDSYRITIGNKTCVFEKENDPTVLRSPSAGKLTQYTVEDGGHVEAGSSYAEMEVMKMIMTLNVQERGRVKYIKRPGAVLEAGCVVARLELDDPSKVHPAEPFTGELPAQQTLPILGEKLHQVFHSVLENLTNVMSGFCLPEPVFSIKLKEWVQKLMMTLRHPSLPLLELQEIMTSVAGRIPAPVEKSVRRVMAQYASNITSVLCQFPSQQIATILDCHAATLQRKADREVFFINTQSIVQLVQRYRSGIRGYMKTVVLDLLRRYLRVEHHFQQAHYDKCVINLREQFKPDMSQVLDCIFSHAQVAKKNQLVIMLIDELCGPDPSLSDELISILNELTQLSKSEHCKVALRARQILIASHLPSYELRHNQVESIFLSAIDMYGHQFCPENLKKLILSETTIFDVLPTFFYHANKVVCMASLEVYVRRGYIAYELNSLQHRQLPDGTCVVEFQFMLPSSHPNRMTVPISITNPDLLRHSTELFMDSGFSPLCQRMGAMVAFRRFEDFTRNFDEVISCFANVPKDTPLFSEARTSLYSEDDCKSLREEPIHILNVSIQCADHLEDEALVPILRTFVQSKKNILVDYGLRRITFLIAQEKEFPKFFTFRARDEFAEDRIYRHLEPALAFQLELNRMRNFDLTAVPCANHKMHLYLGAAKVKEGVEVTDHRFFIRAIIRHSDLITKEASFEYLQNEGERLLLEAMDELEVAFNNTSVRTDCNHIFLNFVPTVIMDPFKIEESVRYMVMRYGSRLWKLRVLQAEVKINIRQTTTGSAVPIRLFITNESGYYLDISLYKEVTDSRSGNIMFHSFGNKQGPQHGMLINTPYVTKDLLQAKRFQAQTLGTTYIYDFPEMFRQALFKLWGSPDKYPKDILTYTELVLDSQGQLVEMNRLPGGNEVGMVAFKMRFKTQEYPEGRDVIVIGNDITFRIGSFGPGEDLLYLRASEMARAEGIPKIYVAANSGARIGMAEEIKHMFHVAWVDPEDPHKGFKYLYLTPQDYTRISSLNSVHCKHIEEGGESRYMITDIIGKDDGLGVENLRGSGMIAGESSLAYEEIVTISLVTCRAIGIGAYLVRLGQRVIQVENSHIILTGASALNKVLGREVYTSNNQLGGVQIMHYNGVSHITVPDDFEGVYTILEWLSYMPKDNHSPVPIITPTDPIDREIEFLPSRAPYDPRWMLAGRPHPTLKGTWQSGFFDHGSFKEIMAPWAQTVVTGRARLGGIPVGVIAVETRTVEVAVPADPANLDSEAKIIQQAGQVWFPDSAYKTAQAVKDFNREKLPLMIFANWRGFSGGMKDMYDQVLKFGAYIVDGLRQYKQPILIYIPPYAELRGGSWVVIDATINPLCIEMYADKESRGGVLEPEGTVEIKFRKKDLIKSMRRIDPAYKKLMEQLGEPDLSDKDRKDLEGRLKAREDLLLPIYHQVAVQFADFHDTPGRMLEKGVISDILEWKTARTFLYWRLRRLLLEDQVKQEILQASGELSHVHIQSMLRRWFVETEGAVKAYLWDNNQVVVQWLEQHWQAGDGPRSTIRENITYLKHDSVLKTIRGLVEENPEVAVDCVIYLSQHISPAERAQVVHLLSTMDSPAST

`O=C(c1c2ccccc2cc2ccccc12)N1CCC(N2CCC[C@@H](C(=O)N3CCOCC3)C2)CC1` [CP-640186]: the IC50 in [1] and in [2] was approximately 60 nM each time.
In the case of `COc1ccc(F)cc1[C@H](Cn1c(=O)n(C(C)(C)C(=O)NC(C)C)c(=O)c2c(C)c(-n3cccn3)sc21)OC1CCC(=O)CC1` [Compound I-26, (R)-2-(1-(2-(5-fluoro-2-methoxyphenyl)-2-((4-oxocyclo-hexyl)oxy)ethyl)-5-methyl-2,4-dioxo-6-(1H-pyrazol-1-yl)-1,4-dihydro-thieno[2,3-d]pyrimidin-3(2H)-yl)-N-isopropyl-2-methylpropanamide], the figures for the IC50 in test [3] and in test [15] were 3 to 10 nM and 0.6 to 3 nM, respectively. For the same compound, the MIC lay within 1.1 to 2 µg/mL (≈ 1.72 to 3.13 µM) in [4] (ATCC90028, 48 h); 0.25 to 1 µg/mL (≈ 0.391 to 1.56 µM) in test [5] (ATCC6258, 48 h); 1.1 to 2 µg/mL (≈ 1.72 to 3.13 µM) in [6] (ATCC22019, 48 h). In addition, the IC90 is 0.4 µg/mL (≈ 0.625 µM) in test [7] (Table 4a); 0.4 µg/mL (≈ 0.625 µM) in [7] (Table 4b); more than 50 µg/mL in [8] (Table 4a); 10 µg/mL (≈ 15.6 µM) in test [8] (Table 4b); 2 µg/mL (≈ 3.13 µM) in test [9] (Table 4a); 2 µg/mL (≈ 3.13 µM) in [9] (Table 4b). Besides, the IC90 in test [10] was 0.08 µg/mL (≈ 0.125 µM); in [11] (setting [16]) it was 2 µg/mL (≈ 3.13 µM); in test [11] (setting [17]), 2 µg/mL (≈ 3.13 µM); in test [12] (48 h, Table 4a) it was more than 50 µg/mL; in test [12] (48 h, Table 4b), more than 50 µg/mL; in test [13] (Table 4a), 2 µg/mL (≈ 3.13 µM). Further, the IC90 was 2 µg/mL (≈ 3.13 µM) in test [13] (Table 4b); more than 50 µg/mL in [14] (48 h, Table 4a); more than 50 µg/mL in test [14] (48 h, Table 4b). For the same compound, in [10] (Table 4a, 48 hours), the “Concentration at 90% Inhibition Fm” value is “A A”.
Take `COc1ccc(F)cc1[C@H](Cn1c(=O)n(C(C)(C)C(=O)N2CCCC2)c(=O)c2c(C)c(-n3cccn3)sc21)OCC(C)(C)O` [Compound I-42, (R)-1-(2-(5-fluoro-2-methoxyphenyl)-2-(2-hydroxy-2-methylpropoxy)ethyl)-5-methyl-3-(2-methyl-1-oxo-1-(pyrrolidin-1-yl)propan-2-yl)-6-(1H-pyrazol-1-yl)thieno[2,3-d]pyrimidine-2,4(1H,3H)-dione]: the values for the IC50 in test [3] and in test [15] were 3 to 10 nM and 0.6 to 3 nM, respectively. For the same compound, the MIC in [4] (ATCC90028, 3 replicates, MIC recorded at 48 h) is 2.1 to 4 µg/mL (≈ 3.35 to 6.37 µM); in test [5] (ATCC6258, 3 replicates, MIC recorded at 48 h), 2.1 to 4 µg/mL (≈ 3.35 to 6.37 µM); in test [6] (ATCC22019, 3 replicates, MIC recorded at 48 h), more than 4.1 µg/mL. Moreover, the IC90 was more than 50 µg/mL in [7] (Table 4a); 10 µg/mL (≈ 15.9 µM) in [7] (Table 4b); more than 50 µg/mL in test [8] (Table 4a); 10 µg/mL (≈ 15.9 µM) in [8] (Table 4b); more than 50 µg/mL in test [9] (Table 4a); 10 µg/mL (≈ 15.9 µM) in [9] (Table 4b). Further, the IC90 in test [10] (Table 4a, 48 hours) was 0.4 µg/mL (≈ 0.637 µM); in test [10] (Table 4b, 48 hours), 0.4 µg/mL (≈ 0.637 µM); in test [11] (Table 4a, 48 hours, read-out: Concentration at 90% Inhibition Fv) it was more than 50 µg/mL; in [11] (Table 4b, 48 hours, read-out: Concentration at 90% Inhibition Fv), 10 µg/mL (≈ 15.9 µM); in test [12] (Table 4a, 48 hours), more than 50 µg/mL; in [13] (Table 4a), 10 µg/mL (≈ 15.9 µM). Further, the IC90 in [13] (Table 4b) was 2 µg/mL (≈ 3.19 µM); in [14] (Table 4a, 48 hours), more than 50 µg/mL. For the same compound, the “Concentration at 90% Inhibition Pc” value in [12] (Table 4b, 48 hours) is on record as “D (“D” provided a compound concentration of >50 ppm at 90% inhibition of fungal pathogens)”. Besides, in test [14] (Table 4b, 48 hours), the “Concentration at 90% Inhibition St” value is “D (“D” provided a compound concentration of >50 ppm at 90% inhibition of fungal pathogens)”.
Consider `COCCO[C@@H](Cn1c(=O)n(C(C)(C)C(=O)NC(C)C)c(=O)c2c(C)c(-n3cccn3)sc21)c1cc(F)ccc1OC` [Compound I-43, (R)-2-(I-(2-(5-fluoro-2-methoxyphenyl)-2-(2-methoxy-ethoxy)ethyl)-5-methyl-2,4-dioxo-6-(1H-pyrazol-1-yl)-1,4-dihydrothieno[2,3-d]pyrimidin-3(2H)-yl)-N-isopropyl-2-methylpropanamide], for which the IC50 lay within 10 to 40 nM in test [3] and 0.6 to 3 nM in test [15]. For the same compound, the MIC in test [4] (ATCC90028, 48 h) lay in the range of 1.1 to 2 µg/mL (≈ 1.83 to 3.32 µM); in [5] (ATCC6258, 48 h) it was 0.25 to 1 µg/mL (≈ 0.415 to 1.66 µM); in test [6] (ATCC22019, 48 h) it was 2.1 to 4 µg/mL (≈ 3.49 to 6.65 µM). Also, the IC90 in test [7] (Table 4a) is more than 50 µg/mL; in [7] (Table 4b) it was 10 µg/mL (≈ 16.6 µM); in test [8] (Table 4a) it was more than 50 µg/mL; in [8] (Table 4b), more than 50 µg/mL; in test [9] (Table 4a), more than 50 µg/mL; in [9] (Table 4b), 10 µg/mL (≈ 16.6 µM). Moreover, the IC90 in test [10] is 2 µg/mL (≈ 3.32 µM); in [11] (setting [16]), 2 µg/mL (≈ 3.32 µM); in [11] (setting [17]) it was 2 µg/mL (≈ 3.32 µM); in test [12] (48 h, Table 4a), more than 50 µg/mL; in test [12] (48 h, Table 4b), more than 50 µg/mL; in test [13] (Table 4a), more than 50 µg/mL. The IC90 in test [13] (Table 4b) is 10 µg/mL (≈ 16.6 µM); in test [14] (48 h, Table 4a), more than 50 µg/mL; in [14] (48 h, Table 4b), more than 50 µg/mL. The “Concentration at 90% Inhibition Fm” value in test [10] (Table 4b, 48 hours) is listed as “B (“B” provided a compound concentration of 2.0 ppm at 90% inhibition of fungal pathogens)”.

By IC50 is commonly meant the concentration that gives 50% inhibition. As a reminder, the MIC is the lowest concentration that inhibits growth of the organism.

(Values after patent US10941158B2, “Pyrazole ACC inhibitors and uses thereof” (Gilead Apollo, LLC, priority 2015, dated 2021).)
